According to US11312727B1, “Macrocyclic flu endonuclease inhibitors” (Janssen BioPharma, Inc., priority 2018, dated 2022):

Key:
[1] = test system: Influenza strain A549 A/WSN/33 (H1N1); test: microbe, parasite or virus in culture; assay type: cell-based; conditions: Influenza A virus, A549, 20 h, A549 cells, influenza A/WSN/33 (H1N1), 20 hours incubation; read-out: A549_A(H1N1) EC50
[2] = in vitro; conditions: human, CC50, uninfected A549 cells, CellTiter-Glo

SMILES | EC50 [1] | CC50 [2]
CC[C@@H]1/C=C/COc2c(ccc(F)c2F)[C@H](c2ccccn2)N2CN1C(=O)c1c(O)c(=O)ccn12 (single isomer, unassigned) [Compound 160BB, (9*R,18*R,*E)-9-ethyl-3,4-difluoro-12-hydroxy-18-(pyridin-2-yl)-6,9-dihydro-18H-10,17-methanobenzo[b]pyrido[1,2-f][1]oxa[5,6,9]triazacyclotridecine-11,13-dione] | > 50 nM | > 100 nM
O=C1c2c(O)c(=O)ccn2N2CN1C[C@H]1C[C@@H](COc3cccc4c3[C@@H]2c2ccccc2SC4)C1 (single isomer, unassigned) [Compound 161A] | > 50 nM | > 100 nM
O=C1c2c(O)c(=O)ccn2N2CN1C[C@H]1C[C@@H](COc3cccc4c3[C@H]2c2ccccc2SC4)C1 (single isomer, unassigned) [Compound 161B] | 15 nM | > 100 nM
C[C@@H]1/C=C/COc2cc(F)c(F)c3c2[C@H](c2ccccc2SC3)N2CN1C(=O)c1c(O)c(=O)ccn12 (single isomer, unassigned) [Compound 162A, (9*R,17a*R,*E)-24,25-difluoro-12-hydroxy-9-methyl-2,6,9,17a-tetrahydro-3,4-(epiprop[1]en[1]yl[3]ylidene)-10,17-methanobenzo[6,7]thiepino[4,5-c]pyrido[1,2-f][1]oxa[5,6,9]triazacyclotridecine-11,13-dione] | > 50 nM | > 100 nM
C[C@H]1/C=C/COc2cc(F)c(F)c3c2[C@@H](c2ccccc2SC3)N2CN1C(=O)c1c(O)c(=O)ccn12 (single isomer, unassigned) [Compound 162B, (9*S,17a*S,*E)-24,25-difluoro-12-hydroxy-9-methyl-2,6,9,17a-tetrahydro-3,4-(epiprop[1]en[1]yl[3]ylidene)-10,17-methanobenzo[6,7]thiepino[4,5-c]pyrido[1,2-f][1]oxa[5,6,9]triazacyclotridecine-11,13-dione] | 0.23 nM | > 100 nM
C[C@@H]1/C=C\COc2cc(F)c(F)c3c2[C@H](c2ccccc2SC3)N2CN1C(=O)c1c(O)c(=O)ccn12 (single isomer, unassigned) [Compound 162C, (13*R,21a*R,*Z)-24,25-difluoro-16-hydroxy-13-methyl-6,10,13,21a-tetrahydro-7,8-(epiprop[1]en[1]yl[3]ylidene)-14,21-methanobenzo[6,7]thiepino[4,5-c]pyrido[1,2-f][1]oxa[5,6,9]triazacyclotridecine-15,17-dione] | 10 nM | > 100 nM
C[C@H]1/C=C\COc2cc(F)c(F)c3c2C(c2ccccc2SC3)N2CN1C(=O)c1c(O)c(=O)ccn12 (single isomer, unassigned) [Compound 162D, (13*S,21a*S,*Z)-24,25-difluoro-16-hydroxy-13-methyl-6,10,13,21a-tetrahydro-7,8-(epiprop[1]en[1]yl[3]ylidene)-14,21-methanobenzo[6,7]thiepino[4,5-c]pyrido[1,2-f][1]oxa[5,6,9]triazacyclotridecine-15,17-dione] | 0.51 nM | > 100 nM
O=C1c2c(O)c(=O)ccn2N2CN1[C@@H](C(F)F)/C=C/COc1cccc3c1[C@@H]2c1ccccc1SC3 (single isomer, unassigned) [Compound 163BA, (9*R,17a*R,*E)-9-(difluoromethyl)-12-hydroxy-2,6,9,17a-tetrahydro-3,4-(epiprop[1]en[1]yl[3]ylidene)-10,17-methanobenzo[6,7]thiepino[4,5-c]pyrido[1,2-f][1]oxa[5,6,9]triazacyclotridecine-11,13-dione] | > 50 nM | > 100 nM
O=C1c2c(O)c(=O)ccn2N2CN1[C@H](C(F)F)/C=C/COc1cccc3c1[C@@H]2c1ccccc1SC3 (single isomer, unassigned) [Compound 163BB, (9*S,17a*R,*E)-9-(difluoromethyl)-12-hydroxy-2,6,9,17a-tetrahydro-3,4-(epiprop[1]en[1]yl[3]ylidene)-10,17-methanobenzo[6,7]thiepino[4,5-c]pyrido[1,2-f][1]oxa[5,6,9]triazacyclotridecine-11,13-dione] | > 50 nM | > 100 nM
CC[C@H]1CCCOc2c(ccc(F)c2F)[C@@H](c2ccccc2)N2CN1C(=O)c1c(O)c(=O)ccn12 (single isomer, unassigned) [Compound 164A, (9*S,18*R)-9-ethyl-3,4-difluoro-12-hydroxy-18-phenyl-6,7,8,9-tetrahydro-18H-10,17-methanobenzo[b]pyrido[1,2-f][1]oxa[5,6,9]triazacyclotridecine-11,13-dione] | > 50 nM | > 100 nM
CC[C@@H]1CCCOc2c(ccc(F)c2F)[C@H](c2ccccc2)N2CN1C(=O)c1c(O)c(=O)ccn12 (single isomer, unassigned) [Compound 164B, (9*R,18*S)-9-ethyl-3,4-difluoro-12-hydroxy-18-phenyl-6,7,8,9-tetrahydro-18H-10,17-methanobenzo[b]pyrido[1,2-f][1]oxa[5,6,9]triazacyclotridecine-11,13-dione] | 2.4 nM | > 100 nM
O=C1c2c(O)c(=O)ccn2N2CN1C/C=C\COc1c(ccc(F)c1F)[C@H]2c1ccccc1C(F)F (single isomer, unassigned) [Compound 165A, (18*R,Z)-18-(2-(difluoromethyl)phenyl)-3,4-difluoro-12-hydroxy-6,9-dihydro-18H-10,17-methanobenzo[b]pyrido[1,2-f][1]oxa[5,6,9]triazacyclotridecine-11,13-dione] | 7.2 nM | > 100 nM
O=C1c2c(O)c(=O)ccn2N2CN1C/C=C\COc1c(ccc(F)c1F)[C@@H]2c1ccccc1C(F)F (single isomer, unassigned) [Compound 165B, (18*S,*Z)-18-(2-(difluoromethyl)phenyl)-3,4-difluoro-12-hydroxy-6,9-dihydro-18H-10,17-methanobenzo[b]pyrido[1,2-f][1]oxa[5,6,9]triazacyclotridecine-11,13-dione] | > 50 nM | > 100 nM
O=C1c2c(O)c(=O)ccn2N2CN1C1(/C=C/COc3cc(F)c(F)c4c3[C@@H]2c2ncccc2SC4)CCC1 (single isomer, unassigned) [Compound 168A, (21a′*R,*E)-24′,25′-difluoro-16′-hydroxy-6′,21a′-dihydro-10′H-spiro[cyclobutane-1,13′-[7,8](epiprop[1]en[1]yl[3]ylidene)[14,21]methanopyrido[1,2-f]pyrido[2′,3′:6,7]thiepino[4,5-c][1]oxa[5,6,9]triazacyclotridecine]-15′,17′-dione] | > 50 nM | > 100 nM
CC(C)[C@H]1/C=C/COc2cc(F)c(F)c3c2[C@@H](c2ccccc2SC3)N2CN1C(=O)c1c(O)c(=O)ccn12 (single isomer, unassigned) [Compound 169AA, (9*S,17a*S,*E)-24,25-difluoro-12-hydroxy-9-isopropyl-2,6,9,17a-tetrahydro-3,4-(epiprop[1]en[1]yl[3]ylidene)-10,17-methanobenzo[6,7]thiepino[4,5-c]pyrido[1,2-f][1]oxa[5,6,9]triazacyclotridecine-11,13-dione] | 48 nM | > 100 nM
CC(C)[C@@H]1/C=C/COc2cc(F)c(F)c3c2[C@@H](c2ccccc2SC3)N2CN1C(=O)c1c(O)c(=O)ccn12 (single isomer, unassigned) [Compound 169AB, (9*R,17a*S,*E)-24,25-difluoro-12-hydroxy-9-isopropyl-2,6,9,17a-tetrahydro-3,4-(epiprop[1]en[1]yl[3]ylidene)-10,17-methanobenzo[6,7]thiepino[4,5-c]pyrido[1,2-f][1]oxa[5,6,9]triazacyclotridecine-11,13-dione] | > 50 nM | > 100 nM
CC(C)[C@@H]1/C=C/COc2cc(F)c(F)c3c2[C@H](c2ccccc2SC3)N2CN1C(=O)c1c(O)c(=O)ccn12 (single isomer, unassigned) [Compound 169BB, (9*R,17a*R,*E)-24,25-difluoro-12-hydroxy-9-isopropyl-2,6,9,17a-tetrahydro-3,4-(epiprop[1]en[1]yl[3]ylidene)-10,17-methanobenzo[6,7]thiepino[4,5-c]pyrido[1,2-f][1]oxa[5,6,9]triazacyclotridecine-11,13-dione] | 1.3 nM | > 100 nM
CC[C@H]1/C=C/COc2c(ccc(Cl)c2F)[C@H](c2ccccc2)N2CN1C(=O)c1c(O)c(=O)ccn12 (single isomer, unassigned) [Compound 170AA, (9*S,18*S,E)-3-chloro-9-ethyl-4-fluoro-12-hydroxy-18-phenyl-6,9-dihydro-18H-10,17-methanobenzo[b]pyrido[1,2-f][1]oxa[5,6,9]triazacyclotridecine-11,13-dione] | > 50 nM | > 100 nM
CC[C@@H]1/C=C/COc2c(ccc(Cl)c2F)[C@H](c2ccccc2)N2CN1C(=O)c1c(O)c(=O)ccn12 (single isomer, unassigned) [Compound 170AB, (9*R,18*S,E)-3-chloro-9-ethyl-4-fluoro-12-hydroxy-18-phenyl-6,9-dihydro-18H-10,17-methanobenzo[b]pyrido[1,2-f][1]oxa[5,6,9]triazacyclotridecine-11,13-dione] | > 50 nM | > 100 nM
Cc1cccnc1[C@@H]1c2ccc(F)c(F)c2OC/C=C/C2(CCC2)N2CN1n1ccc(=O)c(O)c1C2=O (single isomer, unassigned) [Compound 171A, (18′*S,*E)-3′,4′-difluoro-12′-hydroxy-18′-(3-methylpyridin-2-yl)-6′H,18′H-spiro[cyclobutane-1,9′-[10,17]methanobenzo[b]pyrido[1,2-f][1]oxa[5,6,9]triazacyclotridecine]-11′,13′-dione] | 1.3 nM | > 100 nM
O=C1c2c(O)c(=O)ccn2N2CN1C1(/C=C/COc3c(ccc(F)c3F)[C@@H]2c2ccccn2)CCC1 (single isomer, unassigned) [Compound 172B, (18′*R,*E)-3′,4′-difluoro-12′-hydroxy-18′-(pyridin-2-yl)-6′H,18′H-spiro[cyclobutane-1,9′-[10,17]methanobenzo[b]pyrido[1,2-f][1]oxa[5,6,9]triazacyclotridecine]-11′,13′-dione] | > 50 nM | > 100 nM
